Assay results reported in article PMC6828666, “Discovery of holoenzyme-disrupting chemicals as substrate-selective CK2 inhibitors” (Scientific Reports, 2019).
Several values for one entry are separate records, joined by “and”; a condition that tells them apart may be missing. Equal entries are not always repeated. Entries after “also recorded” stand apart in the source; their conditions may differ.

Assays:
CK2α2β2 holoenzyme = target: T1, CK2α2β2 holoenzyme (Homo sapiens, UniProt P68400); experiment: CK2 kinase assay with CK2β-dependent peptide substrate (eIF2-derived); format: biochemical; conditions: for IC50: phosphorylation of CK2β-dependent peptide substrate
T1 construct: made in house; host or cells: Escherichia coli (CK2α)
T1 sequence (P68400 whole entry): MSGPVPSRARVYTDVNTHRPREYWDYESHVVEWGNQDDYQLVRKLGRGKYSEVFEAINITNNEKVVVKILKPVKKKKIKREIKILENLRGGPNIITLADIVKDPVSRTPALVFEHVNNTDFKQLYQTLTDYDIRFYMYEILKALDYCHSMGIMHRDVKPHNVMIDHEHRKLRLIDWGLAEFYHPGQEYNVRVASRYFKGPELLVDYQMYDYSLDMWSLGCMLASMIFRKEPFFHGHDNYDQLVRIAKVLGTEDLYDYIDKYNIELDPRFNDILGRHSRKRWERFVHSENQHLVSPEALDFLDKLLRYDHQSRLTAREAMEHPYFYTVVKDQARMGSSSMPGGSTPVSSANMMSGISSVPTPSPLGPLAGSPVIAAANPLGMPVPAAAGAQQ
Method: First, all the compounds were dissolved at 200 μM in 50 mM Tris-HCl pH 7.5 buffer containing 0.1 M NaCl and 5% DMSO; the compounds that precipitated under these conditions were discarded. The 32 remaining compounds were diluted at 200 μM in the kinase buffer and centrifuged at 14,000 g. The supernatant was then assayed for ability to inhibit phosphorylation of a CK2β-dependent peptide substrate. For this, a 22-residue long N-terminal fragment of the eukaryotic translation initiation factor 2 (eIF2), known to be exclusively phosphorylated by the CK2α2β2 holoenzyme[4] was used as a substrate. […]
Final concentration of ATP was 100 μM. Assays were performed under linear kinetic conditions for 5 min at room temperature before termination by the addition of 60 μL of 4% TCA. ^32P incorporation in peptide substrate was determined as previously described. […]

MCF10A cells = experiment: Scratch wound cell migration assay; format: cell-based, human; conditions: 40 μM
Method: Cells seeded at equal density were allowed to grow to confluence overnight. The Essen Bioscience WoundMaker^TM, an accessory for the IncuCyte Zoom®, was utilized to create Scratch-wounds of a standardized width (~600 μm). Cells were treated with the indicated inhibitors and imaged every 15 min for 44 h and the percentage of wound confluence was analyzed.
Fig. S10. […] MCF10A cells (a) or MDA-MB231 cells (b) were allowed to grow to confluence overnight. Wounds of a standardized width were created using the Essen Bioscience WoundMakerTM. […] Wound closure was monitored using the Essen IncuCyte Zoom live-cell microscopy incubator. Images were captured every 2 h for the duration of the experiment. Error bars represent the SEM of two biological replicates derived from technical triplicates.

MDA-MB231 cells = experiment: Cell death by propidium iodide live-cell imaging (IncuCyte); format: cell-based; conditions: for effect of pan-caspase inhibitor Z-VAD on compound-induced cell death: 80 μM compound, 20 μM Z-VAD
Method: Figure 5 Cellular effects of compounds 3, 4 and 6. MCF10A cells were incubated for 24 h with either DMSO or 30 μM TAT or 30 μM TAT-Pc or 25 μM 6 (a) or with increasing concentrations of 6 (b) or 3 (c). MCF10A cells were incubated for 48 h with either DMSO or with increasing concentrations of 3 or 6 (d). Cells were then lysed and analyzed by western blot with the indicated antibodies. Blot images are representative of at least three independent experiments. Uncropped blots are shown in Supplementary Fig. S16. (e) MDA-MB231 cells were treated with 40 μM 6 (⚬), 4 (▴) or 3 (X). (f) MDA-MB231 cells were treated for 30 h with increasing concentrations of 6 (⚬) or 4 (▴). Insert: cells were treated for 30 h with 80 μM 6 or 10 μM CX-4945. (g) Cells were incubated with 80 μM 6 or 4 in the absence or presence of 20 μM Z-VAD. […] (h) MDA-MB231 cells (⚬) or MCF10A cells (⦁) were incubated for 24 h with 80 μM 6. Cell death was automatically quantified from images captured every 3 h for the duration of the experiments using an Essen IncuCyte Zoom live-cell microscopy incubator. Error bars represent the SEM of two biological replicates derived from technical triplicates.
Cells grown on 96-well flat-bottomed plates (Corning Falcon) were tracked using an Essen IncuCyte Zoom live-cell microscopy instrument, an automated live cell imager with high-throughput capabilities and built-in data analysis. Experiments were conducted at 37 °C and 5% CO2. The software incorporated into the IncuCyte Zoom was used to analyze the images.
Cells plated at equal density (2 × 10^4 cells/well) were treated with the indicated inhibitors in cell culture medium containing 0.5 μg/ml Propidium iodide (Sigma-Aldrich). Images of PI-stained red fluorescent cells were captured every 3 h for the duration of the experiment. For apoptosis detection, 50 μL/mL fluorochrome-conjugated Annexin V (Molecular Probes) was added to the medium together with Propidium iodide and apoptotic cell numbers were calculated.

[1] = compound at 50 μM, CK2β-dependent peptide substrate

With `COc1[nH]c2ccc(F)cc2c1C(=O)OCC1CCN(CCNS(C)(=O)=O)CC1` [Compound 1] as the molecule, how does the “inhibition of CK2β-dependent phosphorylation upon addition of Triton X-100” value (CK2α2β2 holoenzyme; 0.01% vol/vol Triton X-100, 50 μM compound) read?
Its value is “not affected”.

What about the inhibition at 50 µM (CK2α2β2 holoenzyme; [1]) of the same molecule?
The inhibition at 50 µM was 48%.

And the reversibility of inhibition (CK2α2β2 holoenzyme; dilution of the reaction mixture or gel filtration)?
The reversibility of inhibition was “reversed”.

What about the IC50 (CK2α2β2 holoenzyme) of the same molecule?
The IC50 was ~50 µM and 50 µM.

For `CS(=O)(=O)NCCN1CCC(COC(=O)c2c[nH]c3ccccc23)CC1` [Compound 3, (1-(2-(Methylsulfonamido)ethyl)piperidin-4-yl)methyl 1H-indole-3-carboxylate], which “cell migration / wound closure” value (MCF10A cells) is on record?
The value was “not affected”.

And the cell death (MDA-MB231 cells; MDA-MB231, 40 μM)?
The cell death was “without effect”.

And the inhibition at 50 µM (CK2α2β2 holoenzyme; [1])?
The inhibition at 50 µM was 28%.

How did the “effect of pan-caspase inhibitor Z-VAD on compound-induced cell death” value (MDA-MB231 cells) turn out when `O=C(OCC1CCN(CCNS(=O)(=O)c2ccccc2)CC1)c1c[nH]c2ccccc12` [Compound 4, (1-(2-(Phenylsulfonamido)ethyl)piperidin-4-yl)methyl 1H-indole-3-carboxylate] was run?
Its value is “not significantly affected”.

And the “time to retraction of membrane extension by the majority of cells” value (MDA-MB231 cells; MDA-MB231, 40 μM)?
Its value is 9 h.

And the “concentration at which cell death was already detectable” value (MDA-MB231 cells; MDA-MB231, 30 h)?
Its value is 20 µM.

What about the cell death (MDA-MB231 cells; MDA-MB231, 30 h, 80 μM) of the same molecule?
Its cell death is “massive”.

And the inhibition at 50 µM (CK2α2β2 holoenzyme; [1])?
The inhibition at 50 µM was 57%.

What about the IC50 (CK2α2β2 holoenzyme) of the same molecule?
Its IC50 is 45 µM.

With `COc1[nH]c2ccc(F)cc2c1C(=O)OCC1CCN(CCNS(=O)(=O)c2ccccc2)CC1.Cl` [Compound 6] as the molecule, how does the “cell migration / wound closure” value (MCF10A cells) read?
The value was “completely abrogated”.

What about the “effect of pan-caspase inhibitor Z-VAD on compound-induced cell death” value (MDA-MB231 cells) of the same molecule?
Its value is “significantly affected; also recorded: significantly attenuated”.

And the “sensitivity of MDA-MB231 cells to compound-mediated cell death compared with MCF10A cells” value (MDA-MB231 cells; 80 μM, 24 h)?
Its value is “much more sensitive”.

And the “time to retraction of membrane extension by the majority of cells” value (MDA-MB231 cells; MDA-MB231, 40 μM)?
The value was 9 h.

What about the “concentration at which cell death was already detectable” value (MDA-MB231 cells; MDA-MB231, 30 h) of the same molecule?
The value was 20 µM.

What about the cell death (MDA-MB231 cells; MDA-MB231, 30 h, 80 μM) of the same molecule?
Its cell death is “massive”.

And the “Inhibition % at 50 μM” value (CK2α2β2 holoenzyme; [1])?
The value was 80%.
